Measured values: patent publication US9605296B2, “Fluorogenic peptidase substrate” (ECOLE NORMALE SUPERIEURE DE LYON, priority 2011, dated 2017)

Key:
[1] = Solubility in water / aqueous media (observation); details: solid tosylate; dissolves easily in MeOH then dilutable with water
[2] = target: T1, microsomal leucine aminopeptidase (EC 3.4.11.2; PLA) (Sus scrofa, UniProt P15145); assay: Enzymatic test: fluorescence of probes incubated with microsomal leucine aminopeptidase (PLA) in multi-well plates; format: biochemical, pig; details: for Delay for obtaining an intense increase in the signal: different probe concentrations, FIG. 5, generally less than 100 minutes
T1 construct: The microsomal leucine aminopeptidase (EC 3.4.11.2) of pig kidney was purchased from Sigma; purchased Sigma 069K7356; host or cells: pig kidney (tissue-derived enzyme)
T1 sequence (P15145 1-963): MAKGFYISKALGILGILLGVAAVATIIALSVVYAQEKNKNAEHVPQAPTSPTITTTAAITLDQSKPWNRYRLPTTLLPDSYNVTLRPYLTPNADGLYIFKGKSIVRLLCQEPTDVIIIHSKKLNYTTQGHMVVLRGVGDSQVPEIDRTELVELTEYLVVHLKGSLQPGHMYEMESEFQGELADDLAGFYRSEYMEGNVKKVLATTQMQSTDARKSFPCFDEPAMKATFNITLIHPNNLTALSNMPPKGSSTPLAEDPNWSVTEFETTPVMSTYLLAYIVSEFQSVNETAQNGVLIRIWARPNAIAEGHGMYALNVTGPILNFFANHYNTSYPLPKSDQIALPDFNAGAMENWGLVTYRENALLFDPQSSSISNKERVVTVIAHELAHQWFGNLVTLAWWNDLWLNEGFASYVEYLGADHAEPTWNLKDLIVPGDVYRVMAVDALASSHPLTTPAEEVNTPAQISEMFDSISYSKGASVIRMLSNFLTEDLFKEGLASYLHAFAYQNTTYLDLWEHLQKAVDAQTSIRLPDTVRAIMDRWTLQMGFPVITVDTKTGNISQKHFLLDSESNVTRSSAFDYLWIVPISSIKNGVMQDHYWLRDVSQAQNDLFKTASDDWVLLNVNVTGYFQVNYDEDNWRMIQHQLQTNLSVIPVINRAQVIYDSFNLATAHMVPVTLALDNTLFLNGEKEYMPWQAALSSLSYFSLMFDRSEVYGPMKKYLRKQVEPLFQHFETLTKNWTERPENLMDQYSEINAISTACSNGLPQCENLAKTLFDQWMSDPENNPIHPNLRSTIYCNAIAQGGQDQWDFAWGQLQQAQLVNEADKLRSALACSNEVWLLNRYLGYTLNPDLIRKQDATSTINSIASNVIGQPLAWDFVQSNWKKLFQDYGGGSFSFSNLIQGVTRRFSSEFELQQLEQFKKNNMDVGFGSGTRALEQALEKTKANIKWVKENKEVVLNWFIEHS
Description: Preamble: Within the scope of the invention, upon applying the enzymatic tests, once the minimum, concentration allowing triggering of crystal nucleation is reached, a solid fluorophore may first be deposited on the walls of the receptacle (a well in a multi-well plate), before beginning to deposit on the bottom of the receptacle. The delay associated with the triggering of nucleation (≧10 mins) is well seen on the kinetic curves in the figures shown. The enzymatic tests carried out are illustrated with the appended figures.
(§1) The probes I.1 and I.2 were evaluated by incubation with the target enzyme, microsomal leucine aminopeptidase (EC 3.4.11.2; “PLA”; commercial) in an in vitro medium in multi-well micro-plates designed for fluorescence readers.
The main tests were conducted at 25° C., in solutions buffered to pH 7.4 (physiological pH). […] A temperature of 25° C. was therefore preferred.
(§2) All the final solutions for the enzymatic tests were buffered to a pH varying from 7.4 to 7.6 (depending on the room temperature) with a 25 mM (total concentration) of Tris/Tris.HCl buffer, containing 11 mM of NaCl. The microsomal leucine aminopeptidase (EC 3.4.11.2) of pig kidney was purchased from Sigma (catalogue no. 069K7356) in the form of a suspension in ammonium sulfate (3.5 M) containing MgCl2 (10 mM), with 3.5 mg·mL^−1 of protein contents and 10-40 U/mg of protein, as determined for the standard substrate, leucyl p-nitroanilide, and was stored in a fridge at 4° C. for a maximum of 40 days before its use. […] Analyses Carried Out:
(§3) The analyses were carried out with reading of the fluorescence values, measured in RFU, versus time. The analyses were conducted in black polypropylene plates with 96 (Corning, Corning Inc.) or with 384 (Nunclon, Nunc Inc.) wells, and recorded on a microplate fluorimeter (Mithras LB940 from Berthold Technologies). This fluorimeter was used in a so-called repeated mode, where the fluorescence was measured with a reading, here selected to be 3 seconds per well, the excitation beam with a diameter of 4 mm being centered in the well. […] It should be noted that this mode of use is close to the operation of optical high throughput screening by fluorescence, which is one of the applications envisioned for these types of probes. […] In the scanning mode, the wells were divided into a square read-out grid, typically covering the well with a resolution of 8×8 to 15×15 pixels, each of the pixels being read between 0.1 and 0.3 s. This scanning mode partly removes the errors and the read-out noise of the total fluorescence of the well subject to the repeated mode, subsequently to the tendency of the fluorophore once it is released of depositing a first phase on the walls. The scanning mode as implemented here is also slower and less suitable for qualitatively following reaction kinetics. It should be noted that this mode of use is close to the operation of cell counting, which is a second application envisioned for these types of probes.
The excitation wavelength for the probes I.1 and I.2 (based on HPQ) was set to 355 nm, and the localized emission wavelength was set to 510 nm, since the fluorimeter used has filters of the bandpass type for selecting these wavelengths with a bandwidth of 14 nm for the excitation beam and of 10 nm for the emission one.
The enzyme was added last to the prepared wells. After adding the enzyme, the contents of the well were sucked up and released twice with a pipette, in order to homogenize as much as possible the mixture. […] The addition of the enzyme well by well was accomplished by observing the reading delay between the wells, so that the reaction times of each well were the same for each readout of the plate in order to allow comparison of the acquired data for different wells (in these experiments, there was a delay between 3 seconds and 20 seconds, between the readout of the neighboring wells, to be multiplied by up to 77 wells read by acquisition at a time t). […]

[3] = Stability controls: fluorescence of probes in buffered aqueous solution without PLA enzyme (spontaneous hydrolysis, falsely positive signal); format: physicochemical; details: for Signal increase relative to noise in the absence of enzyme (stability to spontaneous hydrolysis): 100 μM, 660 minutes, buffered pH ~7.6, no PLA, FIG. 4
Description: as §1, §2, §3
A series of control measurements of background fluorescence was carried out, with wells containing some enzyme in the standard buffer without any probe. A last series of measurements was conducted by using a solution of probe I.1 prepared three weeks beforehand (“3 wks”), in order to obtain another estimation of the robustness of this probe towards spontaneous hydrolysis in practice. Each readout lasted for 3 seconds per well. […]

[4] = actual 10 μM, plateau not reached, underestimated
[5] = actual 18 μM, plateau not reached, underestimated

SMILES: CC(C)C[C@H](N)C(=O)NCC1CCCCN1C(=O)Oc1ccccc1-c1nc2ccccc2c(=O)[nH]1 (some centres unmarked) [I.1]
- Solubility in water [1]: not very soluble in water
- Predicted Conc. (initial probe concentration estimated from the average ratio) [2, 4]: 0 µM
- Predicted Conc. (initial probe concentration estimated from the average ratio) [2, 5]: 6 µM
- Predicted Conc. (initial probe concentration estimated from the average ratio) ([2]; actual 32 μM): 26 µM
- Predicted Conc. (initial probe concentration estimated from the average ratio) ([2]; actual 59 μM): 42 µM
- Predicted Conc. (initial probe concentration estimated from the average ratio) ([2]; actual 100 μM): 108 µM
- Predicted Conc. (initial probe concentration estimated from the average ratio) ([2]; actual 378 μM, 3 wks stored solution): 419 µM
- Signal/Conc. (signal plateau/concentration ratio) ([2]; probe 32 μM, with PLA): 72794 RFU μM^−1
- Signal/Conc. (signal plateau/concentration ratio) ([2]; probe 59 μM, with PLA): 63054 RFU μM^−1
- Signal/Conc. (signal plateau/concentration ratio) ([2]; probe 100 μM, with PLA): 95711 RFU μM^−1
- Signal/Conc. (signal plateau/concentration ratio) ([2]; probe 378 μM, 3 wks stored solution, with PLA): 98684 RFU μM^−1
- Photo-degradation: signals once the plateau is reached, under irradiation of the fluorescence reader ([2]; with PLA, 11 h acquisition, FIG. 6): do not decrease over time
- Delay for obtaining an intense increase in the signal ([2]; with PLA): about 10 minutes
- Signal increase relative to noise in the absence of enzyme (stability to spontaneous hydrolysis) [3]: NO signal increase
- Falsely positive signal due to spontaneous hydrolysis of the probe ([3]; probe 209 μM and 80 μM without enzyme, 40 hours of incubation, FIG. 1): absence of any falsely positive signal due to spontaneous hydrolysis of the probe

SMILES: CC(C)C[C@H](N)C(=O)NCC(C)(C)N(C)C(=O)Oc1ccccc1-c1nc2ccccc2c(=O)[nH]1 [I.2]
- Predicted Conc. (initial probe concentration estimated from the average ratio) [2, 4]: 1 µM
- Predicted Conc. (initial probe concentration estimated from the average ratio) [2, 5]: 6 µM
- Predicted Conc. (initial probe concentration estimated from the average ratio) ([2]; actual 32 μM): 40 µM
- Predicted Conc. (initial probe concentration estimated from the average ratio) ([2]; actual 59 μM): 63 µM
- Predicted Conc. (initial probe concentration estimated from the average ratio) ([2]; actual 100 μM): 98 µM
- Signal/Conc. (signal plateau/concentration ratio) ([2]; probe 32 μM, with PLA): 110289 RFU μM^−1
- Signal/Conc. (signal plateau/concentration ratio) ([2]; probe 59 μM, with PLA): 95096 RFU μM^−1
- Signal/Conc. (signal plateau/concentration ratio) ([2]; probe 100 μM, with PLA): 87269 RFU μM^−1
- Delay for obtaining an intense increase in the signal ([2]; with PLA): about 10 minutes
- Signal increase relative to noise in the absence of enzyme (stability to spontaneous hydrolysis) [3]: NO signal increase
- Degradation in the absence of enzyme ([3]; probe 100 μM without enzyme, FIG. 3): does not degrade in the absence of enzyme
